In assay [1] the target is T1, S. aureus (SaFtsZ) (Staphylococcus aureus, UniProt P0A031).
T1 construct: 6xHis (C); made in house; host or cells: E. coli BLR (DE3), pET-22b(+)
T1 sequence (P0A031 1-390): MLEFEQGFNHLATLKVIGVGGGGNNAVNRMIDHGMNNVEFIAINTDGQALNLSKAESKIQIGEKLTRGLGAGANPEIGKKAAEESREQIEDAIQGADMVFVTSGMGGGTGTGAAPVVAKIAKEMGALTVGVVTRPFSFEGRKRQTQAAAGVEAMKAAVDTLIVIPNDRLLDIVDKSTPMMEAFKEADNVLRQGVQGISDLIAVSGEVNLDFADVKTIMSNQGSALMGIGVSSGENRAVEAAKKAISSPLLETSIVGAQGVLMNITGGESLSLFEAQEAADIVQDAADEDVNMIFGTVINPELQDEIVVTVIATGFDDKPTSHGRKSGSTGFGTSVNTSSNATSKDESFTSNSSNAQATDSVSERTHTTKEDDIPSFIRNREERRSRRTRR
The assay can be described thus: biochemical. The format is binding. On the procedure: (§1) Fluorescence anisotropy experiments were performed using an AVIV model ATF105 spectrofluorometer at 15, 25, or 37 °C. In these experiments, bandwidths were set to 4 nm in both the excitation and emission directions, with the excitation and emission wavelengths being set at 488 nm and 510 nm, respectively. BOFP (0.1 µM) was titrated with increasing concentrations (ranging from 0 to 12 µM) of FtsZ in 120 µL of buffer containing 50 mM Tris-HCl (pH 7.6) and 50 mM KCl. After each protein addition, the samples were equilibrated for 3 minutes, whereupon the fluorescence anisotropy was measured.
(§2) In this equation, r0 is the anisotropy of the protein-free compound, r∞ is the anisotropy of the compound in the presence of an infinite concentration of FtsZ, [C]tot is the total concentration of the compound, and [P]tot is the total concentration of protein with each addition. These analyses yielded the equilibrium dissociation constant (Kd) for each binding reaction.
(§3) The binding free energy (ΔG) at temperature T was derived from the corresponding Kd value determined at T using the following relationship:2 ΔG=−RTln(1/Kd)
(§4) The binding enthalpy (ΔH) and entropy (ΔS) were derived from linear fits of the ln(1/Kd) vs. 1/T plots shown in Figs. 3f and 5e using the following relationship:3 ln(1/Kd)=−ΔH/R(1/T)+ΔS/R
The impact of guanosine nucleotide and magnesium on the binding of BOFP to SaFtsZ was assessed at 37 °C in the same buffer described above. In these studies, the anisotropy of 0.1 µM BOFP alone or in the presence of 10 µM SaFtsZ was measured, with the latter also being measured in the presence of 0.1 mM GMPCPP (a non-hydrolyzable GTP analog), 10 mM MgCl2, or both.
(§5) In comparative control experiments, the anisotropy of 0.1 µM BODIPY FL-COOH or BOFP alone or in the presence of SaFtsZ (10 µM), SpyFtsZ (10 µM), KpFtsZ (2 µM), or PaFtsZ (2 µM) was measured at 37 °C in the same buffer described above.

Assay [2] addresses S. pyogenes (SpyFtsZ) (Streptococcus pyogenes, UniProt Q99YV7). The assay can be described thus: Fluorescence anisotropy binding of BOFP to SpyFtsZ. Conditions: for Kd: 50 mM Tris-HCl (pH 7.6), 50 mM KCl, 0.1 µM BOFP. The procedure:
as §1, §2, §3, §4, §5
On the technique in general: Fluorescence polarisation rises when a labelled molecule tumbles more slowly, as on binding a larger partner.

The target in assay [3] is E. coli (EcFtsZ) (Escherichia coli, UniProt P0A9A6). Kind of assay: Fluorescence anisotropy binding of BOFP to EcFtsZ. The note with it: for Kd: 50 mM Tris-HCl (pH 7.6), 50 mM KCl, 0.1 µM BOFP. On the procedure:
as §1, §2, §3, §4

The target of assay [4] is T2, FtsZ in E. faecalis ATCC 29212 cells (Enterococcus faecalis, UniProt O08439).
T2 construct: host or cells: E. faecalis ATCC 29212
Kind of assay: FtsZ visualization by fluorescence microscopy in live cells. The format is cell-based. The note with it: 1 µg/mL for 5 minutes. On the procedure:
All differential interference contrast (DIC) and fluorescence microscopy experiments were conducted using an Olympus BX50 microscope equipped with an X-cite Exacte 200 W mercury lamp, a 100× Olympus UPLSAPO oil immersion objective (1.40 aperture), as well as both Chroma ET-EGFP (FITC/Cy2) and ET mCherry, Texas Red filters. Images were captured using a QImaging Retiga R3 charge-coupled device (CCD) camera and the Ocular-Version 2.0 software package (QImaging).
For visualizing FtsZ in Gram-positive bacteria using BOFP, the bacterial cells were grown to log-phase in media suitable for each individual pathogen. Specifically, S. aureus NRS705 (MRSA) was grown in tryptic soy broth (TSB), E. faecalis ATCC 29212 and E. faecium ATCC 19434 were grown in lactobacilli MRS broth, S. agalactiae ATCC 12386 and S. pneumoniae ATCC 49619 were grown in TH broth, and S. pyogenes ATCC 19615 was grown in CAMH broth supplemented with 3% (v/v) LHB. For each Gram-positive bacterial strain, a total of 1 mL of cell culture was centrifuged at 15,000 × g for 1 minute and washed 2–3 times with 1 mL of PBS. After the final wash, the pelleted cells were resuspended in 500 µL of PBS containing 1 µg/mL of BOFP and incubated in the dark for 5 minutes at room temperature. The cells were then centrifuged at 15,000 × g for 1 minute, washed twice with 1 mL of PBS, and subsequently resuspended in 200 µL of PBS. […]

The mark [5] stands for this setting: calculated at T = 310 K (37 °C) from Kd.
The mark [6] stands for this setting: from linear fit of ln(1/Kd) vs. 1/T.

Read-outs that look alike come from different tables or passages of the source.

One may read the Kd as the equilibrium constant for the complex coming apart.

Chain of E. coli (EcFtsZ) (P0A9A6 whole entry): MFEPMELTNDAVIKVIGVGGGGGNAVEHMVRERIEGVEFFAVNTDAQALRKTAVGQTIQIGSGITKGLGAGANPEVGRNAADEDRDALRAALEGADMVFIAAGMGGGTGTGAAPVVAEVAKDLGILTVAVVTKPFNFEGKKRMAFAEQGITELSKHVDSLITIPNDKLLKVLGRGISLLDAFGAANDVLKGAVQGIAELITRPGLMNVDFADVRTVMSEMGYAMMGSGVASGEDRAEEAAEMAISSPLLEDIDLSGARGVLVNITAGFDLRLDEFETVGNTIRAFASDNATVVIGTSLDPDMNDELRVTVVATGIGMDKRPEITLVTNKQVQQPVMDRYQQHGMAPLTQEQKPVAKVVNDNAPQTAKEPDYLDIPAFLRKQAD
Chain of S. pyogenes (SpyFtsZ) (Q99YV7 entry or part of it): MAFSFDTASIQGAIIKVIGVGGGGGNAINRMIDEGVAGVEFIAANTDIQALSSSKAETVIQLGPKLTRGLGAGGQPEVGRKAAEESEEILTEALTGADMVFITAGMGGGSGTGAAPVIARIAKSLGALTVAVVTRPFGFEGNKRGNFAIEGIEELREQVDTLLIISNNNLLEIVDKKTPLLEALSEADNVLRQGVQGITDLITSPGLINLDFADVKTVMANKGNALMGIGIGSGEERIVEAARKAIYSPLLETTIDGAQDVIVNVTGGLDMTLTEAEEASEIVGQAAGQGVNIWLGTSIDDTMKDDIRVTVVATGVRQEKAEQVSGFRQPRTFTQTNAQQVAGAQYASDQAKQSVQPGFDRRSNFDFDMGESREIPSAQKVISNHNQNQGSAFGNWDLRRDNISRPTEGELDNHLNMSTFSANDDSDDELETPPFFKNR
T2 sequence (O08439 whole entry): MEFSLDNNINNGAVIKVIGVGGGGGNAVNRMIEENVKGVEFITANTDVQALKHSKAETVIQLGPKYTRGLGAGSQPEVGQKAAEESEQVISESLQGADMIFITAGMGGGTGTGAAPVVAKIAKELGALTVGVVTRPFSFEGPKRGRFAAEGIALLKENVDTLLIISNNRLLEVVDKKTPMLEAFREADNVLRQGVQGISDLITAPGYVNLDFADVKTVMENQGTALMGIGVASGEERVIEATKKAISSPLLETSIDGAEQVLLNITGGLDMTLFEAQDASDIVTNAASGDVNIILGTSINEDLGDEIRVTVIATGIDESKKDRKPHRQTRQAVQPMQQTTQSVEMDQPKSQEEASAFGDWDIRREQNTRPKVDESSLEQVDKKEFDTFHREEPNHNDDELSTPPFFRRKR

As for `CC1=CC(C)=[N+]2C1=Cc1ccc(CCC(=O)OCC(Oc3ccc(F)c(C(N)=O)c3F)c3nc(-c4ccc(C(F)(F)F)cc4)c(Br)o3)n1[B-]2(F)F` (centres unmarked) [BOFP], the “Effect of both GMPCPP and MgCl2 on anisotropy of SaFtsZ-bound BOFP” value in assay [1] (0.1 µM BOFP, 10 µM SaFtsZ, 0.1 mM GMPCPP and 10 mM MgCl2, 37 °C) was “modest increase in the anisotropy”. For the same compound, the “Effect of GMPCPP alone or MgCl2 alone on anisotropy of SaFtsZ-bound BOFP” value in assay [1] (0.1 µM BOFP, 10 µM SaFtsZ, 0.1 mM GMPCPP or 10 mM MgCl2, 37 °C) is on record as “neither GMPCPP alone (at 0.1 mM) nor MgCl2 alone (at 10 mM) has a significant effect”. Further, the Kd in assay [1] (15 °C, 50 mM Tris-HCl (pH 7.6), 50 mM KCl, 0.1 µM BOFP, read-out: Kd - 15 °C) was 880 ± 80 nM; in assay [1] (25 °C, 50 mM Tris-HCl (pH 7.6), 50 mM KCl, 0.1 µM BOFP, read-out: Kd - 25 °C), 1660 ± 120 nM; in assay [1] (37 °C, 50 mM Tris-HCl (pH 7.6), 50 mM KCl, 0.1 µM BOFP, read-out: Kd - 37 °C) it was 3140 ± 130 nM; in assay [1] (range over 15 to 37 °C, read-out: Kd range), 900 to 3100 nM; in assay [2] (15 °C, read-out: Kd - 15 °C) it was 910 ± 60 nM; in assay [2] (25 °C, read-out: Kd - 25 °C), 1310 ± 80 nM. In addition, the Kd is 1550 ± 80 nM in assay [2] (37 °C, read-out: Kd - 37 °C); 220 ± 30 nM in assay [3] (15 °C, read-out: Kd - 15 °C); 280 ± 20 nM in assay [3] (25 °C, read-out: Kd - 25 °C); 440 ± 40 nM in assay [3] (37 °C, read-out: Kd - 37 °C). Besides, the ΔG was -7.8 ± 0.1 kcal/mol in assay [1] (setting [5]), -8.2 ± 0.1 kcal/mol in assay [2] (setting [5]) and -9.0 ± 0.1 kcal/mol in assay [3] (setting [5]). Moreover, the ΔH in assay [1] (setting [6]) was -10.2 ± 0.3 kcal/mol; in assay [2] (setting [6]), -4.3 ± 1.1 kcal/mol; in assay [3] (setting [6]), -5.6 ± 0.8 kcal/mol. For the same compound, in assay [1] (setting [6]), the ΔS is listed as −7.8 ± 1.0 cal/mol•K. Further, the “Fluorescence staining / FtsZ labeling in live cells” value in assay [4] was “bright bands of fluorescence staining are clearly visible at midcell”.

The values are drawn from publication PMC6934700, “Structure-Guided Design of a Fluorescent Probe for the Visualization of FtsZ in Clinically Important Gram-Positive and Gram-Negative Bacterial Pathogens” (Scientific Reports, 2019).
